These results are taken from US20220273659A1, “HETEROCYCLIC COMPOUNDS AS KINASE INHIBITORS” (NUVATION BIO INC., priority 2019, published 2022).

SMILES strings stand for the structures. Read-outs that look alike come from different tables or passages of the source.

Test [1] deals with MCF-7-PR (palbociclib-resistant MCF-7) cells. In words: Cell viability in palbociclib-resistant cell line. Format: cell-based. To be noted: Homo sapiens, MCF7; Table 5; palbociclib-resistant cell line maintained at about 850 nM palbociclib. Here is the method: Cells were treated with test compounds at 7 to 9 concentrations within a desired concentration range (e.g. 1.1 nM-10 μM) on day 2 by series diluting the test compound stock solution (10 mM in DMSO) with culture medium. Treatment duration was 24 Hr for BT-549 cells and 144 Hr (with a medium change at 72 Hr) for MCF-7 and DU4475 cells. Cell viability was assessed by Cell Titer-Glo® as recommended by Promega (Cat. No.: G7572), or by resazurin assay (Sigma Aldrich, Cat. No.: R7017) post treatment.
Cell viability data were plotted using GraphPad Prism (GraphPad Software, Inc., San Diego, Calif.). In addition, a nonlinear regression model with a sigmoidal dose response and variable slope within GraphPad Prism was used to calculate the IC50 value of individual test compounds.
The effects of test compounds in a palbociclib-resistant cell line and a parental, non-resistant cell line were compared. The palbociclib-resistant cell line (“MCF-7-PR”) was derived from the parental, non-resistant cell line (MCF-7 breast adenocarcinoma cells) by culture of cells over a period of three months in increasing concentrations of palbociclib, starting from about 350 nM and ending at about 850 nM, the final concentration at which they were then maintained in culture. The MCF-7-PR cells were checked using a cell viability assay to confirm that they had at least 5-fold resistance to palbociclib compared to parental MCF-7 cells, as measured by an increase in the cell viability IC50 values. Assessment of cell viability following treatment with palbociclib or test compounds was performed according to the method described above for MCF-7 cells.

The target in test [2] is T1, CDK2 (cyclin A) (Homo sapiens, UniProt P24941).
T1 construct: purchased Invitrogen Life Technologies (assay service)
Nature of the test: Z'-LYTE kinase assay. Format: biochemical. In outline: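 FRET-based Z′-LYTE read-out using 1.22–10.3 ng CDK2/cyclin A with Ser/Thr 12 peptide (2 μM in the 2× mix) and ATP (31 μM as the 4× solution), in HEPES pH 7.5, MgCl2, EGTA and BRIJ-35, for 60 min at room temperature. After 1 h of development, the 445/520 nm emission was read, and percent inhibition was fitted to a four-parameter logistic curve for IC50.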

The target of test [3] is T2, CDK1 (cyclin B) (Homo sapiens, UniProt P06493).
T2 construct: purchased Invitrogen Life Technologies (assay service)
Nature of the test: Z'-LYTE kinase assay. Format: biochemical. Here is the method: The plates were shaken for 30 seconds, and incubated for 60 minutes at room temperature. […] The plates were read on fluorescence plate reader with Dual emission at 445 nm and 520 nm.
The following equations were used for Z′-LYTE™ Screening Assay Data Analysis.

Test [4] concerns DU4475 breast carcinoma cells. In words: Cancer cell proliferation assay, single agent (cell viability). Format: cell-based. To be noted: Homo sapiens, DU-4475; Table 4; Rb negative; treatment 144 Hr with medium change at 72 Hr; Cell Titer-Glo or resazurin. Put shortly:
(§1)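 Viability read by resazurin or CellTiter-Glo after 24 h treatment (BT-549) or 144 h with a 72 h medium change (MCF-7, DU4475). Compounds tested at 7–9 concentrations, e.g. 1.1 nM–10 μM, added the day after seeding; IC50 by nonlinear sigmoidal regression.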
A general note: In ATP-based viability assays light output follows the ATP content of the culture.

The subject of test [5] is MCF-7 breast adenocarcinoma cells. The description is as above. Format: cell-based. To be noted: Homo sapiens. Put shortly:
as §1

Test [6] addresses T3, FMS kinase (Homo sapiens, UniProt P07333).
T3 construct: purchased Invitrogen (Life Technologies)
In words: LanthaScreen Eu Kinase Binding Assay (ATP, fluorescent-PolyGT substrate). Format: biochemical. Put shortly: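 TR-FRET read (ex 340, em 495 and 520 nm) after EDTA/Tb-labelled antibody stop; IC50 by four-parameter logistic fit of percent inhibition. Reaction: 1.25 nM FMS, 10 min compound preincubation (3-fold series), then 1 h at room temperature with 10 μM ATP and 200 nM fluorescent PolyGT.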

Setting [7] is: MCF7, Table 4, Rb positive, treatment 144 Hr with medium change at 72 Hr, Cell Titer-Glo or resazurin.
Where [8] appears, read: MCF7, Table 5, parental, non-resistant cell line compared with MCF-7-PR.

T3 sequence (P07333 20-972): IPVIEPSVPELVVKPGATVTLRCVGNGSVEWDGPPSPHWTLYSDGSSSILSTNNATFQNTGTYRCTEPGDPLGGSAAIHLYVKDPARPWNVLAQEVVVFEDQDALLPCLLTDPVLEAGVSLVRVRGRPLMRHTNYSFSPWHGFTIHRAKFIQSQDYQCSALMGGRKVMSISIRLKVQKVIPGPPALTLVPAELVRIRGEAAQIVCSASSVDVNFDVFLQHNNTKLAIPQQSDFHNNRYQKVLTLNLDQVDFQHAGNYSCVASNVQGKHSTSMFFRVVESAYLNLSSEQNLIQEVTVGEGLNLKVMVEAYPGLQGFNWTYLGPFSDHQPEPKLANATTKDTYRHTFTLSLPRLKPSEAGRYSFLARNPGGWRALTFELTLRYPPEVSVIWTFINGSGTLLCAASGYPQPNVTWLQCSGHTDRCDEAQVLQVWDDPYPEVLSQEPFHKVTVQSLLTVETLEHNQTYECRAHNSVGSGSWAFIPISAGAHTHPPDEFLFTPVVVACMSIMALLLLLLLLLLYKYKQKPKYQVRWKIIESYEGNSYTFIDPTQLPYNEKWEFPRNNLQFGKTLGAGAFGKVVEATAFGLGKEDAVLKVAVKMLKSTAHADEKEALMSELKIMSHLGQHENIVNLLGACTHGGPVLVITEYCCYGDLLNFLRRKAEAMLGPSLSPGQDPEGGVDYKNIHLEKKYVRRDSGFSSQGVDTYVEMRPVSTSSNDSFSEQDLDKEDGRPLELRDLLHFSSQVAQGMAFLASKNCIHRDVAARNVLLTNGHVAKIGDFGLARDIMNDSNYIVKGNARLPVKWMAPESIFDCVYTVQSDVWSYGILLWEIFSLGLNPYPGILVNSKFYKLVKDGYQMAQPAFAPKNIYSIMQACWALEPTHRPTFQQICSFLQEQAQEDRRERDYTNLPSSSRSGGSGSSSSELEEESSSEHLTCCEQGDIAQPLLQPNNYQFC
T2 sequence (P06493 whole entry): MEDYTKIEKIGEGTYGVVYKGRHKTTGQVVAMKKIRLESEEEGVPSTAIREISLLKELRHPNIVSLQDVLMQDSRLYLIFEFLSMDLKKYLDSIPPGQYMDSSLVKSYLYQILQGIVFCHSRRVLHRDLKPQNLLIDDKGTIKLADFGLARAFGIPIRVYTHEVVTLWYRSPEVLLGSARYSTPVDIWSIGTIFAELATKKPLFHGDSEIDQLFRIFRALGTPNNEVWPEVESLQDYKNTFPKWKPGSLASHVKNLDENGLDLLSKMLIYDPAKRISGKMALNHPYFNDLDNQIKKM
T2 sequence (P14635 whole entry partner): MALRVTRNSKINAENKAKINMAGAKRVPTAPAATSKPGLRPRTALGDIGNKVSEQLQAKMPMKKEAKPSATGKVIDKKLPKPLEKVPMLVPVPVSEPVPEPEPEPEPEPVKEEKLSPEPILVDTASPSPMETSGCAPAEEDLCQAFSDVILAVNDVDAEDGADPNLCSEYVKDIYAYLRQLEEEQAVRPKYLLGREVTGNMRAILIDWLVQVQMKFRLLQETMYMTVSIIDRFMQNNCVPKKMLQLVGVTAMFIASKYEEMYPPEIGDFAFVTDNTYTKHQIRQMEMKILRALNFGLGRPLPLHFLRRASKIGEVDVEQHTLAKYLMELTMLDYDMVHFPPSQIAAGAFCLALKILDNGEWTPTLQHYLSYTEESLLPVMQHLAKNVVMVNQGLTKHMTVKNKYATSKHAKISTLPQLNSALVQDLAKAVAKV

As for `CS(=O)(=O)N1CCC(Nc2ncc3cc(C#N)c(=O)n(C4CCCC4)c3n2)CC1` [Compound No. 93, 8-cyclopentyl-2-((1-(methylsulfonyl)piperidin-4-yl)amino)-7-oxo-7,8-dihydropyrido[2,3-d]pyrimidine-6-carbonitrile], the IC50 in test [1] came to 911 nM; in test [2], 2.5 nM; in test [3], 53 nM; in test [4], 793 nM; in test [5] (setting [7]) it was 2000 nM; in test [5] (setting [8]) it was 558 nM.

As for `N#Cc1cc2cnc(Nc3ccc4c(c3)CCNC4)nc2n(C2CC3CC3C2)c1=O` (stereo not shown) [Compound No. 342, 8-(bicyclo[3.1.0]hexan-3-yl)-7-oxo-2-((1,2,3,4-tetrahydroisoquinolin-6-yl)amino)-7,8-dihydropyrido[2,3-d]pyrimidine-6-carbonitrile], the IC50 in test [1] was 361 nM; in test [6] it was below 1 nM; in test [2], 41 nM; in test [3] (read-out: CDK1/B IC50), 439 nM; in test [4], 485 nM; in test [5] (setting [7]), 415 nM. Further, the IC50 in test [5] (setting [8]) came out at 192 nM.

Turning to `CS(=O)(=O)N1CCC(Nc2ncc3cc(C#N)c(=O)n(C4CCC(F)(F)C4)c3n2)CC1` (racemic) [Compound No. 345, 8-(3,3-difluorocyclopentyl)-2-((1-(methylsulfonyl)piperidin-4-yl)amino)-7-oxo-7,8-dihydropyrido[2,3-d]pyrimidine-6-carbonitrile], the IC50 stood at 6230 nM in test [1]; 674 nM in test [6]; 30 nM in test [2]; 1110 nM in test [3]; 3690 nM in test [4]; 3140 nM in test [5] (setting [7]). In addition, the IC50 in test [5] (setting [8]) amounted to 3970 nM.

As for `CS(=O)(=O)N1CCC(Nc2ncc3cc(C#N)c(=O)n(C4CC5CC5C4)c3n2)CC1` (stereo not shown) [Compound No. 341, 8-(bicyclo[3.1.0]hexan-3-yl)-2-((1-(methylsulfonyl)piperidin-4-yl)amino)-7-oxo-7,8-dihydropyrido[2,3-d]pyrimidine-6-carbonitrile], the IC50 in test [1] was found to be 690 nM; in test [6] it was 166 nM; in test [2] it was 7 nM; in test [3] (read-out: CDK1/B IC50), 197 nM; in test [4], 940 nM; in test [5] (setting [7]) it was 835 nM. In test [5] (setting [8]), the IC50 came to 487 nM.

With `N#Cc1cc2cnc(Nc3ccc4c(c3)CCNC4)nc2n(C2CCCC2)c1=O` [Compound No. 31, 8-cyclopentyl-7-oxo-2-((1,2,3,4-tetrahydroisoquinolin-6-yl)amino)-7,8-dihydropyrido[2,3-d]pyrimidine-6-carbonitrile], the IC50 in test [1] turned out to be 248 nM; in test [6], 1 nM; in test [2], 32 nM; in test [3] (read-out: CDK1/B IC50), 481 nM; in test [4], 525 nM; in test [5] (setting [7]) it was 130 nM. The IC50 in test [5] (setting [8]) is 157 nM.

In the case of `N#Cc1cc2cnc(Nc3ccc(N4CCNCC4)c(F)c3)nc2n(C2CCCC2)c1=O` [Compound No. 13, 8-cyclopentyl-2-((3-fluoro-4-(piperazin-1-yl)phenyl)amino)-7-oxo-7,8-dihydropyrido[2,3-d]pyrimidine-6-carbonitrile], the IC50 was 481 nM in test [1], below 1 nM in test [6], 158 nM in test [5] (setting [7]) and 119 nM in test [5] (setting [8]).

On to `N#Cc1cc2cnc(Nc3ccc4c(c3)CNCC4)nc2n(C2CCCC2)c1=O` [Compound No. 29, 8-cyclopentyl-7-oxo-2-((1,2,3,4-tetrahydroisoquinolin-7-yl)amino)-7,8-dihydropyrido[2,3-d]pyrimidine-6-carbonitrile], for which the IC50 in test [6] was determined as 2.5 nM; in test [2] it was 42 nM; in test [3] (read-out: CDK1/B IC50), 441 nM; in test [4], 1280 nM; in test [5] (setting [7]), 240 nM.
